The values that follow come from patent US8436021B2, “Pharmaceutical composition for treating and/or preventing a pathology associated with an obsessional behavior or with obesity” (priority 2002, dated 2013).

Holding throughout (assay type): in vivo, mouse
Assay [1] concerns leptine. In words: Plasma leptine rates after administration of NaCl or MDMA. Particulars: single administration MDMA 10 mg/kg, wild or mutant mice; p=0.95. As for the experimental part:
The data represents the average±the standard deviation from the average of the leptine rates of the plasma expressed in ng/mL after the administration of NaCl (0.9%) or of MDMA (10 mg/kg) in the wild (+/+) or the disabled (−/−) mice for the gene coding for the 5-HT4 receptor, aged six to 10 months on the average. **p<0.01 significant effect of the genotype after a variance analysis (ANOVA) followed by an F test of Scheffé.

The test system of assay [2] is 5-HT4 receptor. Kind of assay: Ingestion of food after 24 h food deprivation and i.p. drug injection (protocol of Lucas et al., 1998). To be noted: for diminution of ingestion of food vs NaCl-treated mice of same genotype / effect on ingestion of food vs NaCl-treated mice of same genotype: MDMA 10 mg/kg, RS 39604 0.5 mg/kg i.p.; for effect on ingestion of food vs NaCl-treated mice of same genotype: 3 h after administration. As for the experimental part: Each drug used to treat the wild mice disabled for the gene coding for the 5-HT4 receptor was diluted extemporaneously in a saline solution of NaCl (0.9%) and injected in a systemic manner (i.p.). The injection volume of each treatment was 200 μL for 30 g. The wild mice or those disabled for the 5-HT4 receptor (n=35) received the following treatments: NaCl, MDMA (or ecstasy or 3,4-N-methylene dioxymethamphetamine, SIGMA, 10 mg/kg), RS 39604, […]/MDMA.
(§1) The MDMA (10 mg/kg, Sigma, user license 9900431 S, V. Compan) and RS 39604 (0.5 mg/kg), antagonist of the 5-HT4 receptor, were administered by themselves or in a combined treatment to the wild mice or those deprived of the 5-HT4 receptor (n=12-17 by genotype and pharmacological products).
Ingestion of food by the wild mice and the mice disabled for the gene coding for the 5-HT4 receptor was evaluated in accordance with the test protocol described by Lucas et al., 1998. The different mice were isolated for a habituation period of three days in the presence of food and water supplied ad libitum during which the weights of the mice and of the food consumed were measured daily at the same hour. On the fourth day the mice were deprived of their food for 24 hours. The drugs were injected such as NaCl after the food deprivation period to determine the effect of the different treatments on ingestion of food. Food was reintroduced into each cage after an interval of 10 min for the other treatments. Three successive weighings of the food were then carried out 30 min, 1 h and 3 h after the reintroduction of the food.

For assay [3], the system named is 5-HT4 receptor. In words: Constraint stress (forced immobilization 110 min): ingestion of food and weight. To be noted: RS 39604 1 mg/kg, not shown. As for the experimental part:
Each of the tests was divided into three phases: A period of habituation (7 days), the day of the constraint stress (immobilization for 110 min) and a recovery stage (10 days). The mice were divided into a control group and a constraint group. On the stress day the wild mice disabled for the gene coding for the 5-HT4 receptor received an injection of NaCl […], 1 mg/kg of RS 39604, antagonist of the 5-HT4 receptor. […] Ingestion of food was then measured 2 h 30 min, 3 and 5 h and each day during the recovery period.

In assay [4] the test system is 5-HT4 receptor. In words: Taking of food in mice nourished ad libitum (dose selection for RS 39604). Particulars: 0.5 mg/kg, not illustrated. As for the experimental part: as §1

Regarding `CNC(C)Cc1ccc2c(c1)OCO2` (stereo not drawn) [MDMA, 3,4-N-methylene dioxymethamphetamine], the “rates of leptine in plasma” value in assay [1] is reported as “does not modify the rates of leptine”. For the same molecule, the “diminution of ingestion of food vs NaCl-treated mice of same genotype” value is −69.07% in assay [2] (mice lacking the 5-HT4 receptor (−/−), 30 min after administration); −68.49% in assay [2] (mice lacking the 5-HT4 receptor (−/−), 1 h after administration); −95.38% in assay [2] (wild mice (+/+), 30 min after administration, 24 h food deprivation); −88.56% in assay [2] (wild mice (+/+), 1 h after administration, 24 h food deprivation). For the same molecule, the “effect on ingestion of food vs NaCl-treated mice of same genotype” value is reported as “no longer observed” in assay [2] (mice lacking the 5-HT4 receptor (−/−)) and “absent” in assay [2] (wild mice (+/+), 24 h food deprivation).
For the molecule `COc1cc(COc2cc(N)c(Cl)cc2C(=O)CCC2CCN(CCNS(C)(=O)=O)CC2)cc(OC)c1` [RS 39604], the “ingestion of food after constraint stress preceded by injection” value in assay [3] (wild female mice) is on record as “not modified”. In addition, in assay [3] (wild mice), the “weight losses after constraint stress vs NaCl-treated animals” value was “reduced the weight losses”. The “taking of food vs mice treated with NaCl or other dosages” value is listed as “without effect” in assay [4] (mutant animals for the 5-HT4 receptors) and “increase of the taking of food” in assay [4] (nourished wild mice ad libitum). The “effect of treatment alone on ingestion of food (statistical analysis of genotype, treatment, interaction)” value in assay [2] (RS 39604 0.5 mg/kg i.p. alone, wild and mutant mice, 24 h food deprivation) is “does not reveal significant”.
